17 compounds from patent US7781470B2, “Aminodicarboxylic acid derivatives having pharmaceutical properties” (Bayer Schering Pharma Aktiengesellschaft, priority 1999, dated 2010) can be followed below.

For one assay, the system named is arteria saphena rings. Kind of assay: Vasal relaxant action in vitro (phenylephrin-contracted artery rings). The note with it: Oryctolagus cuniculus; concentration reducing phenylephrin-induced contraction by 50%; rabbit arteria saphena rings; read-out: IC50 vasorelaxant action in vitro. Type of assay: cell-based, Rabbits. The protocol:
Rabbits are anaesthetized by intravenous injection of thiopental sodium […] (about 50 mg/kg) and exsanguinated. The arteria saphena is removed and divided into 3 mm wide rings. The rings are individually mounted on in each case one triangular pair of hooks, open at the end, made of 0.3 mm strong special wire (Remanium®). Under a pretension, each ring is transferred into 5 ml organ baths containing a warm, carbogen-aerated Krebs-Henseleit solution at 37° C. having the following composition (mM): NaCl: 119; KCl: 4.8; CaCl2×2H2O: 1; MgSO4×7 H2O: 1.4; KH2PO4: 1.2; NaHCO3: 25; glucose: 10; bovine serum albumin: 0.001%. The contractility is detected using Statham UC2 cells, amplified and digitalized by means of A/D converters (DAS-1802 HC, Keithley Instruments Munich), and recorded in parallel on linear recorders. Contractions are induced by addition of phenylephrin.
After several (in general 4) control cycles, the substance to be investigated is added in each further passage in increasing dosage, and the height of the contraction achieved under the influence of the test substance is compared with the height of the contraction achieved in the last preliminary passage. From this, the concentration which is necessary in order to reduce the contraction achieved in the preliminary control by 50% ((IC50) is calculated. The standard administration volume is 5 μl. The proportion of DMSO in the bath solution corresponds to 0.1%.

The target of assay [1] is T1, Haem-containing sGC (recombinant soluble guanylate cyclase) (Rattus norvegicus, UniProt P20595).
T1 construct: made in house
T1 sequence (P20595 1-619): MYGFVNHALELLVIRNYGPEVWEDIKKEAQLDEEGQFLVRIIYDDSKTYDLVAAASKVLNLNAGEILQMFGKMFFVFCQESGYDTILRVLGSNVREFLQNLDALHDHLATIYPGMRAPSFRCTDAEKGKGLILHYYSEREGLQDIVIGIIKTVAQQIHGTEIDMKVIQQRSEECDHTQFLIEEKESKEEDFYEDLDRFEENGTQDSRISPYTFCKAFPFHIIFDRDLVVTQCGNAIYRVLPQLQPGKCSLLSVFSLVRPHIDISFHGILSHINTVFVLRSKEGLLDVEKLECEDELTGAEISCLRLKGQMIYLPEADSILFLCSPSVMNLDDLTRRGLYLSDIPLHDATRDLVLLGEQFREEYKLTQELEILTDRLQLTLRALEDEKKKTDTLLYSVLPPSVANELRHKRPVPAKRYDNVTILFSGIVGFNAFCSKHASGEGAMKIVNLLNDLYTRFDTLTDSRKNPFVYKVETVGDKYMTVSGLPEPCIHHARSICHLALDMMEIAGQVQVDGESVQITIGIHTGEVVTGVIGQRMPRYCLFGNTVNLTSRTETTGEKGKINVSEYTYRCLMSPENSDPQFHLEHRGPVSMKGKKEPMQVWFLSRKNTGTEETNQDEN
T1 sequence (P19686 1-690 partner): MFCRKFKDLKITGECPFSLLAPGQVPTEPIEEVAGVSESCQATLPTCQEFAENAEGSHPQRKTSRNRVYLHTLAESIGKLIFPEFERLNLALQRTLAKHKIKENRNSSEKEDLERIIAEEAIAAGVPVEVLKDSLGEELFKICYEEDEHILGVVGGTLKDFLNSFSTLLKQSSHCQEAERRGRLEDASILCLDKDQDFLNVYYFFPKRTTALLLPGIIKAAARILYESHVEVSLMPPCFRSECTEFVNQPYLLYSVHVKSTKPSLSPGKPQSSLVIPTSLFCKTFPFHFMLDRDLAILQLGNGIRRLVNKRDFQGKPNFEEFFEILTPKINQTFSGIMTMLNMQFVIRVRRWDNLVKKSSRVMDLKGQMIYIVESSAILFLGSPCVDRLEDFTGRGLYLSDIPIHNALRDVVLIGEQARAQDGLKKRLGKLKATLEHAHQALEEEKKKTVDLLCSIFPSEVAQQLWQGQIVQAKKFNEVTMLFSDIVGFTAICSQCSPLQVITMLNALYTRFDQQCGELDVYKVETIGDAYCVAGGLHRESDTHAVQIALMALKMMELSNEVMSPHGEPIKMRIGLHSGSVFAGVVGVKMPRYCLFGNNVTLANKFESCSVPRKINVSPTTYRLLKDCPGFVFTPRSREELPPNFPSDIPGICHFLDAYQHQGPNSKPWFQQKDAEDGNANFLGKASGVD
Kind of assay: Stimulation of recombinant soluble guanylate cyclase (sGC) in vitro, haem-containing enzyme. It counts as biochemical. The method, then:
(§1) The investigations on the stimulation of recombinant soluble guanylate cyclase (sGC) and the compounds according to the invention with and without sodium nitroprusside and with and without the haem-dependent sGC inhibitor 1H-1,2,4-oxadiazole-(4,3a)-quinoxalin-1-one (ODQ) were carried out by the method described in detail in the following literature reference: M. Hoenicka, E. M. Becker, H. Apeler, T. Sirichoke, H. Schroeder, R. Gerzer and J.-P. Stasch: Purified soluble guanylyl cyclase expressed in a baculovirus/Sf9 system: stimulation by YC-1, nitric oxide, and […]. J. Mol. Med. 77 (1999): 14-23.
(§2) Activation of sGC by a test substance is stated as n-fold stimulation of basal activity.

Assay [2] concerns the target T2, Haem-free sGC (recombinant soluble guanylate cyclase) (Rattus norvegicus, UniProt P20595).
T2 construct: made in house
T2 sequence (P20595 1-619): T1 sequence (P20595 1-619)
T2 sequence (P19686 1-690 partner): T1 sequence (P19686 1-690 partner)
Kind of assay: Stimulation of recombinant soluble guanylate cyclase (sGC) in vitro, haem-free enzyme. It counts as biochemical. The following applies: for Stimulation (n-fold), haem-free sGC, basal: Tween 20 0.5%. The method, then:
as §1
Haem-free guanylate cyclase was obtained by adding Tween 20 to the sample buffer (final concentration 0.5%).
as §2

[3] abbreviates: 0.1 μM test compound + ODQ 10 μM.
The mark [4] stands for this setting: 1.0 μM test compound + ODQ 10 μM.
The mark [5] stands for this setting: 10 μM test compound + ODQ 10 μM.
Setting [6] is: ODQ 10 μM, Ex. 87 concentration 0.

Counter-ions that a name gives are not always drawn.

Turning to `C#CCOc1ccccc1CCN(CCCCC(=O)O)Cc1ccc(C(=O)O)cc1` [Example 37], in the assay with arteria saphena rings, the IC50 came out at 830 nM. Consider `CCCCCCCCOc1ccccc1CCN(CCOc1ccc(C(=O)O)cc1)Cc1ccc(C(=O)O)cc1` [Example 103], for which, in the assay with arteria saphena rings, the IC50 was 3.9 nM. The same measure, in the same setting: the result for `O=C(O)CCCCN(CCc1ccccc1OCc1ccc(/C=C/c2ccccc2)cc1)Cc1ccc(C(=O)O)cc1` [Example 33] reads 0.5 nM. For `O=C(O)CCCCN(CCc1ccccc1OCc1ccc(-c2ccc(Cl)cc2)cc1)Cc1ccc(C(=O)O)cc1` [Example 87], the results for the “Stimulation (n-fold), haem-containing sGC, +ODQ (10 μM)” value in assay [1] (setting [3]), in assay [1] (setting [4]) and in assay [1] (setting [5]) were 132 n-fold, 115 n-fold and 181 n-fold, respectively. The “Stimulation (n-fold), haem-containing sGC, +SNP (0.1 μM)” value in assay [1] (0.1 μM test compound + SNP 0.1 μM) worked out at 41 n-fold; in assay [1] (1.0 μM test compound + SNP 0.1 μM), 47 n-fold; in assay [1] (10 μM test compound + SNP 0.1 μM) it was 60 n-fold. Moreover, the “Stimulation (n-fold), haem-containing sGC, basal” value in assay [1] (0.1 μM test compound, n-fold stimulation of basal activity) worked out at 15 n-fold; in assay [1] (1.0 μM test compound) it was 18 n-fold; in assay [1] (10 μM test compound), 24 n-fold. Besides, the “Stimulation (n-fold), haem-free sGC, +ODQ (10 μM)” value in assay [2] (setting [3]) worked out at 361 n-fold; in assay [2] (setting [4]), 457 n-fold; in assay [2] (setting [5]), 477 n-fold. Further, the “Stimulation (n-fold), haem-free sGC, basal” value in assay [2] (0.1 μM test compound) stood at 353 n-fold; in assay [2] (1.0 μM test compound), 491 n-fold; in assay [2] (10 μM test compound), 529 n-fold. Moreover, the half-inhibitory concentration (IC50) in the assay on arteria saphena rings is 0.5 nM. With `CC(C)(C)c1ccc(COc2ccccc2CCN(CCCCC(=O)O)Cc2ccc(C(=O)O)cc2)cc1` [Example 30], in the assay on arteria saphena rings, the IC50 stood at 17 nM. The same measure, in the same setting: the result for `O=C(O)CCCCN(CCc1ccccc1OCc1ccc(-c2csc(C(F)(F)F)n2)cc1)Cc1ccc(C(=O)O)cc1` [Example 72] reads 29 nM. On the same count and under the same terms, the result for `O=C(O)c1ccc(CN(CCOc2ccc(C(=O)O)cc2)CCc2ccccc2OCc2ccc(C3CCCCC3)cc2)cc1` [Example 102] reads 0.2 nM; that for `O=C(O)CCCCN(CCc1ccccc1OCc1ccc2c(c1)CCCC2)Cc1ccc(C(=O)O)cc1` [Example 76], 29 nM; that for `O=C(O)CCCCN(CCc1ccccc1OCc1ccc(C2CCCCC2)cc1)Cc1ccc(C(=O)O)cc1` [Example 70], 0.2 nM.

Turning to `O=C(O)CCCCN(CCc1ccccc1OCc1ccc(OCc2ccccc2)cc1)Cc1ccc(C(=O)O)cc1` [Example 32], the IC50 with arteria saphena rings stood at 6.5 nM. Still for that read-out and setting: the result for `O=C(O)CCCCN(CCc1ccccc1OCc1ccc(Oc2ccc(Cl)cc2)cc1)Cc1ccc(C(=O)O)cc1` [Example 28] reads 2.8 nM.

For `O=C(O)CCCCN(CCc1ccccc1OCc1ccc(CCc2ccccc2)cc1)Cc1ccc(C(=O)O)cc1` [Example 8, 4-[((4-Carboxybutyl)-{2-[(4-phenethylbenzyl)oxy]phenethyl}amino)-methyl]benzoic Acid Hydrochloride], the IC50 in the assay with arteria saphena rings came out at 0.4 nM. In the case of `O=c1onc2cnc3ccccc3n12` [ODQ, 1H-1,2,4-oxadiazol-(4,3a)-quinoxalin-1-one, reference compound], the “Stimulation (n-fold), haem-containing sGC, ODQ alone” value in assay [1] (setting [6]) was determined as 1 n-fold. Further, the “Stimulation (n-fold), haem-free sGC, ODQ alone” value in assay [2] (setting [6]) is 1 n-fold. `O=C(O)CCCCN(CCc1ccccc1OCc1ccc(Oc2ccc(C(F)(F)F)cc2)cc1)Cc1ccc(C(=O)O)cc1` [Example 86]: the IC50 with arteria saphena rings is 0.4 nM. Still for that read-out and setting: the result for `COc1ccc(-c2ccc(COc3ccccc3CCN(CCCCC(=O)O)Cc3ccc(C(=O)O)cc3)cc2)cc1` [Example 88] reads 0.4 nM. Same read-out and setting: the result for `O=C(O)CCCCCN(CCc1ccccc1OCc1ccc(-c2ccccc2)cc1)Cc1ccc(C(=O)O)cc1` [Example 56] reads 73 nM; that for `O=C(O)c1ccc(CN(CCOc2ccc(C(=O)O)cc2)CCc2ccccc2OCCCCCc2ccccc2)cc1` [Example 98], 3.4 nM.

As a reminder, the IC50 is the concentration at which inhibition is half-maximal.
